Measurements taken from patent US10703751B2, “Amino-imidazopyridine derivatives as Janus kinase inhibitors and pharmaceutical use thereof” (LEO Pharma A/S, priority 2017, dated 2020).
Like-named read-outs stand apart in the source and are kept apart here.

How the values were obtained:
TYK2 = TYK2 (Homo sapiens (Human), UniProt P29597); experiment: TYK2 kinase assay (HTRF); type: biochemical
Method: Human baculovirus-expressed Janus kinase (JAK) 1, 2, 3 and tyrosin kinase (TYK) 2 were purchased from Carna Biosciences, Inc (#08-144, -045, -046, -147 resp.). All four purified enzymes contain only the catalytic domain. JAK1 (aa 850-1154) and TYK2 (aa 871-1187) are expressed with an N-terminally fused GST-tag, and JAK2 and JAK3 with an N-terminally fused His-tag. Inhibition of phosphorylation of a synthetic peptide was measured in an HTRF-based assay (CisBio #62TKOPEC). First, 75 nL of test compound solution (100% DMSO) was added to a white shallow 384-well plate (NUNC #264706) using a Labcyte ECHO 550 liquid handler. Thereafter, 1 μL of compound dilution buffer (50 mM HEPES, 0.05% bovine serum albumin) and 2 μL of TK solution (TK substrate-biotin in kinase buffer [1× enzymatic buffer from HTRFKinEASE TK kit, 1 mM DTT]) was added. Then, 5 μL kinase-ATP mix (prepared in kinase buffer) was added to the wells and the plates were incubated at RT for 20 (JAK2, 3 and TYK2) to 40 (JAK1) min. For all four kinases a concentration of ATP that corresponded to the Km for ATP was used. The final concentrations of buffers, substrate, kinase and ATP were: JAK1: 50 mM Hepes buffer pH 7.0, 0.01% BSA, 10 mM MgCl2, 1 mM DTT, 7 μM ATP, 50 nM SEB, 1 μM TK Substrate-Biotin and 5 ng/well JAK1; JAK2: 50 mM Hepes buffer pH 7.0, 0.01% BSA, 5 mM MgCl2, 1 mM DTT, 4 μM ATP, 1 μM TK Substrate-Biotin and 0.1 ng/well JAK2; JAK3: 50 mM Hepes buffer pH 7.0, 0.01% BSA, 5 mM MgCl2, 1 mM DTT, 2 μM ATP, 1 μM TK Substrate-Biotin and 0.3 ng/well JAK3; TYK2: 50 mM Hepes buffer pH 7.0, 0.01% BSA, 5 mM MgCl2, 1 mM DTT, 13 μM ATP, 50 nM SEB, 1 μM TK Substrate-Biotin and 0.8 ng/well TYK2. Thereafter, the kinase reaction was stopped by adding 4 μL detection mix (final concentrations: 50 mM Hepes buffer pH 7.0, 0.01% BSA, 0.8 M KF, 20 mM EDTA, 42 nM Streptavidin-XL665 and 1:400 STK Ab Cryptate) and the plates were incubated overnight in the dark. A PerkinElmer Envision reader was used to quantify the HTRF signal using the following filters; 320 nm excitation filter, 665 nm emission filter and a 615 nm 2nd emission filter. A ratio ((665/615)×10^4) was calculated for each well.

CYP1A2 [1] = molecular target: CYP1A2 (Homo sapiens (Human), UniProt P05177); experiment: Reversible CYP inhibition, 1A2; type: in vitro ADME
Method: (§1) Reversible CYP inhibition, time dependent CYP inhibition (TDI) and CYP induction was tested at Cyprotex PLC according to authority guidance.

CYP2B6 [2] = molecular target: CYP2B6 (Homo sapiens (Human), UniProt P20813); experiment: Reversible CYP inhibition, 2B6; type: in vitro ADME; details: up to 50 μM for Example 3
Method: as §1

CYP2C8 = CYP2C8 (Homo sapiens (Human), UniProt P10632); experiment: Reversible CYP inhibition, 2C8; type: in vitro ADME; details: up to 50 μM for Example 3
Method: as §1

CYP2C19 = CYP2C19 (Homo sapiens (Human), UniProt P33261); experiment: Reversible CYP inhibition, 2C19; type: in vitro ADME; details: up to 50 μM for Example 3, up to 25 μM for Examples 644 and 641
Method: as §1

CYP2D6 = CYP2D6 (Homo sapiens (Human), UniProt P10635); experiment: Reversible CYP inhibition, 2D6; type: in vitro ADME; details: up to 50 μM for Example 3, up to 25 μM for Examples 644 and 641
Method: as §1

CYP3A4 [3] = molecular target: CYP3A4 (Homo sapiens (Human), UniProt P08684); experiment: Reversible CYP inhibition, 3A4; type: in vitro ADME; details: for IC50: up to 50 μM for Example 3, up to 25 μM for Examples 644 and 641
Method: as §1

CYP [4] = experiment: Reversible CYP inhibition, overall statement; type: in vitro ADME; details: substrate concentrations up to 50 μM
Method: as §1

CYP [5] = experiment: Time dependent CYP inhibition (TDI); type: in vitro ADME
Method: as §1

CYP1A2 gene expression = experiment: CYP induction, CYP1A2 mRNA expression; type: in vitro ADME; details: Example 3: up to at least a concentration of 10 μM
Method: as §1
(§2) Induction of CYP1A2, CYP2B6 and CYP3A4 gene expression can serve as sensitive representative endpoints for activation of aryl hydrocarbon receptor (AhR), […], respectively. Induction of these nuclear receptors was assessed by measuring the increase in mRNA encoding for […], respectively, at relevant concentrations.
(§3) A >2-fold shift indicate CYP Induction.

CYP1A2 [6] = experiment: CYP induction, CYP1A2 mRNA expression; type: in vitro ADME; details: human, mean fold shift compared to vehicle, read-out: Fold shift in mRNA expr. (CYP 1A2); for CYP1A2 mRNA fold change vs vehicle at 0.1 μM: >2-fold indicates induction
Method: as §1, §2, §3

CYP2B6 gene expression = experiment: CYP induction, CYP2B6 mRNA expression; type: in vitro ADME; details: Example 3: up to at least a concentration of 10 μM; Example 644: at 10 μM
Method: as §1, §2, §3

CYP2B6 [7] = experiment: CYP induction, CYP2B6 mRNA expression; type: in vitro ADME; details: human, mean fold shift compared to vehicle, read-out: Fold shift in mRNA expr. (CYP 2B6)
Method: as §1, §2, §3

CYP3A4 gene expression = experiment: CYP induction, CYP3A4 mRNA expression; type: in vitro ADME
Method: as §1, §2, §3

CYP3A4 [8] = experiment: CYP induction, CYP3A4 mRNA expression; type: in vitro ADME; details: human, mean fold shift compared to vehicle, read-out: Fold shift in mRNA expr. (CYP 3A4)
Method: as §1, §2, §3

[9] = reversible, up to 50 μM for Example 3, up to 25 μM for Examples 644 and 641, read-out: 1A2 IC50

Chain of CYP2D6 (P10635 whole entry): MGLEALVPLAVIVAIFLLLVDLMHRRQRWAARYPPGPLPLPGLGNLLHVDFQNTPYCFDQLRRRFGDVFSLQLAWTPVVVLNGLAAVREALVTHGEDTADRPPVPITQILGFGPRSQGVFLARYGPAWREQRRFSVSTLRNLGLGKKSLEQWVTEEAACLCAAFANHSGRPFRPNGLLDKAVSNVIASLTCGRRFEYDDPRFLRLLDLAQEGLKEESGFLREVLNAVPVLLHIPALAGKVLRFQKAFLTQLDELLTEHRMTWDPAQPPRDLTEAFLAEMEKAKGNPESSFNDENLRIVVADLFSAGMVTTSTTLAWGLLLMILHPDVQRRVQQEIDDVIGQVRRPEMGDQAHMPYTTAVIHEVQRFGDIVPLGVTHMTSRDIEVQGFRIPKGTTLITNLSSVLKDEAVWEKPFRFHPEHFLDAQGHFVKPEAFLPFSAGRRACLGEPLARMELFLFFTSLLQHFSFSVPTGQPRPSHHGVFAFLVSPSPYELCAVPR
Chain of CYP1A2 (Homo sapiens (Human), UniProt P05177) (P05177 whole entry): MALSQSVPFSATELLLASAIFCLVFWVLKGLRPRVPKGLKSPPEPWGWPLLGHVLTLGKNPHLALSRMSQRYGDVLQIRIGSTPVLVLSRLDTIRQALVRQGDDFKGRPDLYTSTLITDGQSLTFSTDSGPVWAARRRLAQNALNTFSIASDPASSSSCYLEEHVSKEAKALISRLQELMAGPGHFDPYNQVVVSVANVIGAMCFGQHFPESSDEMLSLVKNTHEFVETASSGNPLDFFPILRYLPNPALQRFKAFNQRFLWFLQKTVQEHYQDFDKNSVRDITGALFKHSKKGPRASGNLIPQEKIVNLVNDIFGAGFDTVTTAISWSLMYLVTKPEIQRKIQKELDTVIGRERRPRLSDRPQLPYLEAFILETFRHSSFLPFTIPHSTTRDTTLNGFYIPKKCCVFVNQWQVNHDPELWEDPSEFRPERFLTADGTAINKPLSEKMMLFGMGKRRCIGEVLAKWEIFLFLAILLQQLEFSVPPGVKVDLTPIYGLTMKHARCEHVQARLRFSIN
Chain of CYP3A4 (Homo sapiens (Human), UniProt P08684) (P08684 whole entry): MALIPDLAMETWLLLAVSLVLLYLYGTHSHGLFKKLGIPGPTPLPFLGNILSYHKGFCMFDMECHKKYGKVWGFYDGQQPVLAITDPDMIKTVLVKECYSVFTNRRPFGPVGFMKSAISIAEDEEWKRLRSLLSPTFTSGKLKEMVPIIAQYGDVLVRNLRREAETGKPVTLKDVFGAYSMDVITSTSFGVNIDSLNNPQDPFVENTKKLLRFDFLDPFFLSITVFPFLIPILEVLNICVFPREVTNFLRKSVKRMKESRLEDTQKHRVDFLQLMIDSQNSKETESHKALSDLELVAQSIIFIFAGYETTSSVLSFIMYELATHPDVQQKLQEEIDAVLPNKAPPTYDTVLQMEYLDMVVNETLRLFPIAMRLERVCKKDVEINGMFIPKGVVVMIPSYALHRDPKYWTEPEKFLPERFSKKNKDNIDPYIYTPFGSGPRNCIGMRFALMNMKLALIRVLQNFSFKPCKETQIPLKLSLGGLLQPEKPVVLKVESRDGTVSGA
Chain of TYK2 (P29597 871-1187): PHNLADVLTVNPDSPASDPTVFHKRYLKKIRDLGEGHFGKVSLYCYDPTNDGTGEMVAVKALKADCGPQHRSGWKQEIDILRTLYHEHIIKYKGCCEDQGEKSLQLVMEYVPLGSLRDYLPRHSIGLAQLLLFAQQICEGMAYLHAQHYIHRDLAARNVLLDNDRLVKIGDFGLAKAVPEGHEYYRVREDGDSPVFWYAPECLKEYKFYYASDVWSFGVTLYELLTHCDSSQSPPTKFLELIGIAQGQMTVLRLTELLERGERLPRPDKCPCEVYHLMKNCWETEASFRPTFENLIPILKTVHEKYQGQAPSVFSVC
Chain of CYP2C19 (P33261 whole entry): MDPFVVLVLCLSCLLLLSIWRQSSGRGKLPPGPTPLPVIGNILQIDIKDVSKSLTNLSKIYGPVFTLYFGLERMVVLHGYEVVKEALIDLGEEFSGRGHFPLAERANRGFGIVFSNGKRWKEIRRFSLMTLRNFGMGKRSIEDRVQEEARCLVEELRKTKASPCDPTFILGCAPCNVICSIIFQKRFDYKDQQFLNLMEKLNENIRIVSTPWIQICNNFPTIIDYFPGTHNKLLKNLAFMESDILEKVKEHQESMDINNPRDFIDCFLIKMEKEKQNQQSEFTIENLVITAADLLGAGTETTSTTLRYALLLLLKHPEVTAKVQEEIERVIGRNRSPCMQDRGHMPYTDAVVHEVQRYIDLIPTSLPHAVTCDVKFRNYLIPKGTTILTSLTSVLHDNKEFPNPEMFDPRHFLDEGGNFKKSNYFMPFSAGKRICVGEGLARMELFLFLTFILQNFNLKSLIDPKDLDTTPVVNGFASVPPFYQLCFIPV
Chain of CYP2C8 (P10632 whole entry): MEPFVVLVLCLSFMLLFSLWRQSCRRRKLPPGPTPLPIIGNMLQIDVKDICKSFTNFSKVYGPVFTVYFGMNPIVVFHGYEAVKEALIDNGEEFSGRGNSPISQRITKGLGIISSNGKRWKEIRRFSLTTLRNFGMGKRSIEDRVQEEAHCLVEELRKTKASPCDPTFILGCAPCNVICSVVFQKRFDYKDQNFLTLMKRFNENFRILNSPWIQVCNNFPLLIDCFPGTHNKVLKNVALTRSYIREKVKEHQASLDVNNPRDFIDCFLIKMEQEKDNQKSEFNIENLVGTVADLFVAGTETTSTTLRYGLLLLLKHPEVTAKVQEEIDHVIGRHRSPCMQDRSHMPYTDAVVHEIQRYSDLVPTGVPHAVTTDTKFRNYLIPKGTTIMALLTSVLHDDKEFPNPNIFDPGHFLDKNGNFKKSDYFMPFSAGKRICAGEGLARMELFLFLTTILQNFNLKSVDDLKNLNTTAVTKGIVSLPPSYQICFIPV
Chain of CYP2B6 (Homo sapiens (Human), UniProt P20813) (P20813 whole entry): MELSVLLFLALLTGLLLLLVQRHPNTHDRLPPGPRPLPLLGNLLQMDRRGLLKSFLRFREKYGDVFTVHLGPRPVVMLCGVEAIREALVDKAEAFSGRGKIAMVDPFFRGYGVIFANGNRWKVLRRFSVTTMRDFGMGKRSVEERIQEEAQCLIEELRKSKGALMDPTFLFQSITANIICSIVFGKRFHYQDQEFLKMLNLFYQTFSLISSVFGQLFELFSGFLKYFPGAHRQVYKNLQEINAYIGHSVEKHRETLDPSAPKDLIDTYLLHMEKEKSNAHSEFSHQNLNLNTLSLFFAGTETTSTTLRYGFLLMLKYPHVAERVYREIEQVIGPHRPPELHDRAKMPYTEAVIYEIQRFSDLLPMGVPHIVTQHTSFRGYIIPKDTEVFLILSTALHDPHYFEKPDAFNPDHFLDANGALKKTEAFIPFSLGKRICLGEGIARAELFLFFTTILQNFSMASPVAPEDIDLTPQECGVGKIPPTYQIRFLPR

| SMILES | EC50 (TYK2; ATP at Km (13 μM)) [µM] | IC50 (CYP1A2 [1]; [9]) [µM] | IC50 (CYP2C19) [µM] | IC50 (CYP2D6) [µM] | IC50 (CYP3A4 [3]) [µM] | CYP1A2 mRNA fold change vs vehicle at 0.1 μM (CYP1A2 [6]) | CYP1A2 mRNA fold change vs vehicle at 1 μM (CYP1A2 [6]) | CYP1A2 mRNA fold change vs vehicle at 10 μM (CYP1A2 [6]) | CYP2B6 induction (in words) (CYP2B6 gene expression) | fold change in CYP2B6 mRNA expression vs vehicle at 0.1 μM (CYP2B6 [7]) | fold change in CYP2B6 mRNA expression vs vehicle at 1 μM (CYP2B6 [7]) | fold change in CYP2B6 mRNA expression vs vehicle at 10 μM (CYP2B6 [7]) | CYP3A4 induction (in words) (CYP3A4 gene expression) | CYP3A4 mRNA fold induction vs vehicle at 5 μM (CYP3A4 [8]) | CYP3A4 mRNA fold induction vs vehicle at 20 μM (CYP3A4 [8]) | CYP3A4 mRNA fold induction vs vehicle at 50 μM (CYP3A4 [8]) | CYP3A4 inhibition (in words) (CYP3A4 [3]) | further results |
| --- | --- | --- | --- | --- | --- | --- | --- | --- | --- | --- | --- | --- | --- | --- | --- | --- | --- | --- |
| CNc1cc2c(cn1)nc([C@@H](C)O)n2[C@H]1CC[C@H](CC#N)CC1 [Example 3, trans-2-[4-[2-[(1R)-1-Hydroxyethyl]-6-(methylamino)imidazo[4,5-c]pyridin-1-yl]cyclohexyl]acetonitrile] | 0.032 | > 50 | > 50 | > 50 | > 50 | 0.8 | 0.7 | 0.8 | does not cause | 1.1 | 1.5 | 1.7 | does not cause CYP3A4 induction up to at least a concentration of 50 μM | 1.2 | 1.5 | 2 | – | IC50 (CYP2B6 [2]): > 50 µM; IC50 (CYP2C8): > 50 µM; CYP inhibition (in words) (CYP [4]): no CYP inhibition; time dependent CYP inhibition (in words) (CYP [5]): No time dependent CYP inhibition was indicated; CYP1A2 induction (in words) (CYP1A2 gene expression): does not cause |
| C[C@@H](O)c1nc2cnc3[nH]ccc3c2n1[C@H]1CC[C@H](C#N)CC1 [Example 641 of WO2011086053] | – | – | > 25 | > 25 | 10.9 | 0.9 | 0.8 | 0.9 | – | 1 | 1.3 | 1.4 | causes CYP3A4 induction at a concentration of 20 μM and above | 1.8 | 2.5 | 4 | weak CYP3A4 inhibition | EC50 (TYK2): 0.115 µM; IC50 (CYP1A2 [1]): > 25 µM |
| C[C@@H](O)c1nc2cnc3[nH]ccc3c2n1[C@H]1CC[C@H](CC#N)CC1 [Example 644 of WO2011086053] | 0.00332 | > 25 | > 25 | > 25 | 10.8 | – | – | – | CYP2B6 induction at a concentration of 10 μM | – | – | – | causes CYP3A4 induction at a concentration of 10 μM | – | – | – | weak CYP3A4 inhibition | – |
